From patent publication US20220031607A1, “INJECTION COMPOSITION CONTAINING FAB I INHIBITOR, AND PREPARATION METHOD THEREFOR” (CRYSTALGENOMICS, INC., priority 2019, published 2022)

Assay: Solubility in excipients and solvents by HPLC analysis
Type: physicochemical
Conditions: for solubility at 1 h: thermodynamic from solid
Method: The excipients approved as pharmaceutical additives and solvents that can be used for future process studies were selected as shown in Table 1. A small amount of the compound of formula 1 was added and dissolved. The addition operation was repeated until completely dissolved. Finally, it was stirred at room temperature for one hour and then filtered to determine the concentration of the compound of formula 1 dissolved in the filtrate through HPLC analysis.
20 μL of each the test solution and the standard solution were tested according to a liquid chromatography method (HPLC) of general test methods of the Korean Pharmacopoeia under the following conditions, and the peak area of the main component of each solution was measured.
Operating Condition and Calculation
Detector: UV spectrophotometer (measurement wavelength 286 nm)
Column: Aegispak C18-L (4.6 mm×250 mm, 5 μm) column
Column temperature: 25° C.
Mobile phase: Acetonitrile:water=3:2

In the case of Cc1c(N)cccc1Cn1ccc(OCCc2cccs2)cc1=O [Compound of formula 1, 1-(3-amino-2-methylbenzyl)-4-(2-thiophen-2-yl-ethoxy)-1H-pyridin-2-one], the solubility at 1 h (Capryol 90, oil or lipid, in Capryol 90) was 2900 µg/mL, the solubility at 1 h (DMSO, organic solvent or mixture, in DMSO) was 180000 µg/mL and the solubility at 1 h (Labrasol, aqueous with cosolvent or surfactant or cyclodextrin, in Labrasol) was over 20000 µg/mL. It also gave a solubility at 1 h (PEG 300, organic solvent or mixture, in PEG 300) of over 20000 µg/mL, a solubility at 1 h (Peceol, oil or lipid, in Peceol) of 4400 µg/mL and a solubility at 1 h (Solutol HS 15, aqueous with cosolvent or surfactant or cyclodextrin, in Solutol HS 15) of at least 10000 µg/mL. It also gave a solubility at 1 h (Tween 20, aqueous with cosolvent or surfactant or cyclodextrin, in Tween 20) of over 20000 µg/mL, a solubility at 1 h (Tween 80, aqueous with cosolvent or surfactant or cyclodextrin, in Tween 80) of at least 10000 µg/mL and a solubility at 1 h (glycerol, organic solvent or mixture, in Glycerol) of 260 µg/mL. The Solubility (in Ethanol) was 3650 µg/mL, the Solubility (in Methanol) was 6140 µg/mL and the Solubility (in Propylene glycol) was 3800 µg/mL. The solubility at 1 h (methyl chloride, organic solvent or mixture, in Methyl chloride) was about 60000 µg/mL, the solubility at 1 h (oleic acid, oil or lipid, in Oleic acid) was 2000 µg/mL and the solubility at 1 h (pH 2.0 solution, pH 2, simulated gastric fluid, in pH 2.0) was 440 µg/mL. For the same compound, the solubility at 1 h (soybean oil, oil or lipid, in Soybean Oil) was about 8500 µg/mL.
